Data as given in patent EP2397471A1, “Benzimidazole compounds and their use” (China Medical University, priority 2010, dated 2011).

Tests used:
[1] = system: PC-3 cells; assay: In situ tubulin assay (immunofluorescence microscopy); type: cell-based; conditions: 18 to 24 h
Description: The organization and formation of microtubule were detected by immunofluorescence microscopic examination in PC-3 cells.
PC-3 cells were seeded in 8-well chamber slides and incubated with a vehicle (0.1% DMSO, control), Compound 55 (10 µM), taxol (0.1 µM), or vincristine (0.1 µM) for 18 to 24 h. Then, the cells were fixed with 100 % methanol at -20°C for 5 min and incubated in 1 % bovine serum albumin (BSA) containing 0.1 % Triton X-100 at 37°C for 30 min. Cells were then washed twice with PBS for 5min and stained with primary antibody specific to β-tubulin at 37°C for 1 h. Afterwards, FITC-labeled secondary antibodies were used (staining performed at 37°C for 40 min, green fluorescence) and the protein was detected using a confocal laser microscopic system (Leica TCS SP2). The nuclei were visible by DAPI staining (1 mg/mL DAPI, blue fluorescence).

[2] = system: Ras, Raf-1, and MEK; assay: Western blotting of Ras, Raf-1, MEK; type: cell-based; conditions: PC-3 cells; 10 µM; 30-120 min for Ras, 6-24 hrs for Raf-1, MEK
Description: (§1) PC-3 cells were incubated with a vehicle (0.1% DMSO) as control or Coumpound 55 (10 µM) for 30 min, 45 min, 60 min, and 120 min for testing Ras; or for 6 hrs, 12 hrs, 18 hrs, and 24 hrs for testing Raf-1, Phospho-MEK, MEK, and GAPDH. After the treatment, cells were washed twice with ice-cold PBS and then lysed with 100 µL lysis buffer (20 mM Tris, pH 7.5, 1 mM MgCl2, 125 mM NaCl, 1% Triton X-100, 1 mM phenylmethylsulphonylfluoride, 10 µg/mL leupeptin, 10 µg/mL aprotinin, 25 mM β-glycerophosphate, 50 mM NaF, and 100 µM sodium orthovanadate). Then, the expressions of the above proteins were detected by Western blotting.

[3] = system: Tubulin proteins; assay: In vitro tubulin turbidity assay; type: biochemical; conditions: absorbance at 340 nm, 37°C, 60 min
Description: Effects of the benzimidazole compounds on tubulin polymerization were detected using CytoDYNAMIX Screen 03 kit (Cytoskeleton, Inc., Denver, CO).
Tubulin proteins (> 99% purity) were suspended in G-PEM buffer containing 80 mM PIPES, 2 mM MgCl2, 0.5 mM […], and 1.0 mM GTP (pH 6.9) and 5% glycerol with or without a test compound. Then, the mixture was transferred to a 96-well plate and the absorbance was measured at 340 nm (37°C) for 60 min (SpectraMAX Plus, Molecular Devices Inc., Sunnyvale, CA).
Level oftubulin polymerization was determined by examining turbidity of the tubulin suspension. Absorbance of the suspension at 340 nm was plotted as a function of time. Accordingly, the velocity and magnitude of tubulin polymerization were determined.

[4] = system: Cyclin E, Cyclin A, Cyclin B1, Cdk1, Cdk2, p27, MPM2; assay: Western blot analysis of cell-cycle regulators; type: cell-based; conditions: PC-3 cells; 10 µM
Description: as §1
The cell-cycle regulators were also examined by Western blot analysis. Proteins in the lysis (40 µg) were separated by electrophoresis in a 10 or 15% polyacrylamide gel, transferred to a nitrocellulose membrane and immuno-reacted with respective antibodies against Cyclin E, Cyclin A, Cyclin B1, Cdk1, Cdk2, p27, MPM2, and GAPDH.

[5] = system: PC-3 cells; assay: FACScan flow cytometric analysis of cell cycle progression; type: cell-based; conditions: 1 µM, 3 µM, and 10 µM, 0 hr to 48 hrs
Description: PC-3 cells were treated with Compound 55 (at different concentrations: 1 µM, 3 µM, and 10 µM) for 0 hr, 6 hrs, 12 hrs, 18 hrs, 24 hrs, 36 hrs, and 48 hrs. After treatment, cells were washed twice with ice-cold PBS, collected by centrifugation and fixed in 70% (v/v) ethanol at 4°C for 30 min. Then, cells were treated with 0.2 ml of a buffer (containing 0.2 M Na2HPO4 and 0.1 M citric acid buffer, pH 7.8) for 30 min, centrifuged, and then incubated in 1 mL propidium iodide (PI) staining buffer (0.1 % Triton X-100, 100 µg/mL RNase A, 80 µg/mL propidium iodide in PBS) at 37°C for 30 min. Cells were detected using a cytofluorometer, and analyzed by FACScan and CellQuest program (Becton Dickinson).

[6] = system: Bcl-2 family member proteins, caspases; assay: Western blot analysis of Bcl-2 family member proteins and caspases (apoptosis); type: cell-based; conditions: PC-3 cells; 10 µM; 0 hr to 36 hrs
Description: Effect of benzimidazole compounds on inducing apoptosis was evaluated by testing their effect on the expression/activation of Bcl-2 family member proteins, caspases, and c-Jun N-terminal kinase (JNK). Bcl-2 family of proteins is the most important regulators of mitochondria-involved apoptotic cell death. The pro-apoptotic members, Bax, Bak and Bad, are required for the disruption of mitochondria; whereas the anti-apoptotic Bcl-2, Bcl-xL and Mcl-1 can prevent apoptosis by antagonizing the pro-apoptotic members.
PC-3 cells were incubated with a vehicle (0.1% DMSO) or Compound 55 (10 µM) for 0 hr, 6 hrs, 12 hrs, 18 hrs, 24 hrs, and 36 hrs. Then, the cells were harvested and lysed for the detection of protein expression with specific antibodies by western blot analysis. For Western blotting, the proteins (40 µg) in the lysis (including Phospho-Bcl-2, Bcl-2, Phospho-Bcl-xL, Bcl-xL, Mcl-1, Bax, Bak, Bad, GAPDH, cleaved Bad, Caspase-9, cleaved Caspase-9, Caspase-3, cleaved Caspase-3, poly-(ADP-ribose) polymerase (PARP), cleaved PARP, and GAPDH) were separated by electrophoresis in a 10 to 15% polyacrylamide gel, transferred to a nitrocellulose membrane and immuno-reacted with specific antibodies.

Row | SMILES | spindles and nuclei, in situ labeling of tubulin and chromosomes ([1]; 0.1 µM) | expression of Ras, Raf-1, and MEK [2] | tubulin polymerization [3] | expression of cyclin B1 [4] | expression of cyclin E and cyclin A [4] | spindles and nuclei, in situ labeling of tubulin and chromosomes ([1]; 10 µM) | cell population at G2/M phase [5] | hypodiploid (sub-G1, apoptosis) population of the cell cycle [5] | Mcl-1 expression [6] | cleavage of caspase-9, caspase-3 and PARP [6] | phosphorylation and degradation of Bcl-2 and Bcl-xL [6]
1 | CC[C@]1(O)C[C@H]2CN(CCc3c([nH]c4ccccc34)[C@@](C(=O)OC)(c3cc4c(cc3OC)N(C=O)[C@H]3[C@@](O)(C(=O)OC)[C@H](OC(C)=O)[C@]5(CC)C=CCN6CC[C@]43[C@@H]65)C2)C1 [vincristine] | multi-polar spindles and chromosome condensation were observed | – | – | – | – | – | – | – | – | – | –
2 | CC(=O)O[C@H]1C(=O)[C@@]2(C)[C@H]([C@H](OC(=O)c3ccccc3)[C@]3(O)C[C@H](OC(=O)[C@H](O)[C@@H](NC(=O)c4ccccc4)c4ccccc4)C(C)=C1C3(C)C)[C@]1(OC(C)=O)CO[C@@H]1C[C@@H]2O [taxol] | multi-polar spindles and multiple nuclei were formed | – | – | – | – | – | – | – | – | – | –
3 | COc1cc(Cn2c(-c3ccccc3)nc3cc(N4CCCC4)ccc32)cc(OC)c1OC [Compound 55, 2-phenyl-5-(pyrrolidin-1-yl)-1-(3,4,5-trimethoxybenzyl)-1H benzo[d]imidazole] | – | upregulated Ras, Raf-1, and MEK | inhibited tubulin polymerization in a dose-dependent manner | upregulated cyclin B1 | downregulated cyclin E and cyclin A | mono-polar | increase of cell population at G2/M phase | subsequent increase of hypodiploid (sub-G1, apoptosis) population | decrease of Mcl-1 expression | cleaved to produce catalytically active fragments | induced the phosphorylation and degradation of Bcl-2 and Bcl-xL
